Data published in US7935726B1, “Tricyclic pyrones” (Kansas State University Research Foundation, priority 1999, dated 2011).
One block for each compound: values may come before it.

Experiments:
ACAT = experiment: inhibition of ACAT; format: biochemical
CETP = target: T1, CETP (Homo sapiens, UniProt P11597); experiment: inhibition of CETP; format: biochemical
T1 sequence (P11597 18-493): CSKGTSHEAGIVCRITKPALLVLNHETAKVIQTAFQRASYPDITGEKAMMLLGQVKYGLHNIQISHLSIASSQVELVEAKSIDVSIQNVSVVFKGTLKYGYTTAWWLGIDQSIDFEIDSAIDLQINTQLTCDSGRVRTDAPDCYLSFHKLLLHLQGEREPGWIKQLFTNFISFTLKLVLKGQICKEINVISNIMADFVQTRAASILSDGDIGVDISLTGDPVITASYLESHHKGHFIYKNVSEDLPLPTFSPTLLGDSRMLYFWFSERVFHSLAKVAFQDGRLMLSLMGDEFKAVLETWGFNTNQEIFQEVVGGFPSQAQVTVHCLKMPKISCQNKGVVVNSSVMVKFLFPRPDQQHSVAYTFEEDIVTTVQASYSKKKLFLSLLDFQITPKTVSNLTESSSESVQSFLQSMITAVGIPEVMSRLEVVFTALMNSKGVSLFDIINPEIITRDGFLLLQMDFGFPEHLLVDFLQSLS
From the text: (§1) The reported procedures for the inhibitory activities of ACAT (Tomoda, H.; Nishida, H.; Masuma, R.; Cao, J.; Okuda, S.; Omura, S. J. Antibiot. 1991, 44, 136-143), CETP (Tomoda, H.; Tabata, N.; Masuma, R.; Si, S.-Y.; Omura, S. J. Antibiot. 1998, 51, 618-623; D. H. Hua et al. Tetrahedron 2003, 59, 4795-4803), L1210 tumor cells (Perchellet, E. M.; Ladesich, J. B.; Magill, M. J.; Chen, Y.; Hua, D. H.; Perchellet, J. P. Anti-Cancer Drugs 1999, 10, 489-504), and APP C99-induced cell death (Jin, L.-W.; Hua, D. H.; Shie, F.-S.; Maezawa, I.; Sopher, B.; Martin, G. M. J. Mol. Neurosci. 2002, 19, 57-61) were followed.
ACAT mediates the esterification of intracellular cholesterol and is believed to play a key role in lipoprotein metabolism and atherogenesis (for a review: Suckling, K. E.; Stange, E. F. J. Lipid Res. 1985, 26, 647-671). […] The inhibition of CETP with these three compounds was then studied. CETP, a hydrophobic neutral glycoprotein, mediates the transfer of cholesteryl ester from high-density lipoprotein to low-density lipoprotein (For a review: Tall, A. R. J. Lipid Res. 1993, 34, 1255-1274). […] The N-(p-nitrophenyl)aspartamide portion of 104 was attached in order to study whether 104 was a substrate of […] (For a review: VIIIa, P.; Kaufmann, S. H.; Earnshaw, W. C. Trends Biochem. Sci. 1997, 22, 388-393). […] Compound 105 is cytotoxic to L1210 tumor cells, with IC50=30 μM. Aggarwal et al., J. Chem. Soc., Perkin Trans I (1999) 3315-3321 is incorporated by reference to the extent not inconsistent with the disclosure herewith.

MC65 cells = experiment: protection from APP C99-induced cell death in MC65 cells; format: cell-based; conditions: for protection of MC65 cells from death (in words): MC65 cells conditionally expressing partial APP fusion protein, absence of tetracycline; for EC50: MC65 cells in the absence of tetracycline
From the text: as §1, with “followed. […]” for “followed.”

[1] = tested on: N/N 1003 lens epithelial cells; experiment: tissue culture assay: galactitol formation from galactose in lens epithelial cells (GC/MS); format: cell-based; conditions: for inhibition at 10 µM: 10 uM inhibitor, 40 mM galactose media, lens epithelial cells, number of trials in parenthesis; for inhibition at 10 µM / % galactitol: 48 hours; for % galactitol: 40 mM galactose
Protocol: The activity of the drugs is tested in various ways, including tissue culture assays and assays testing aldose reductase inhibition. For the tissue culture assay, a lens epithelial cell line is grown in galactose with or without the drug. Cells are tested for polyol accumulation by GC/mass spectrometry. Levels of PKC are tested in homogenized cell pellets or in samples of lens, retina or sciatic nerves from treated patients. Tissue is homogenized and tested for PKCγ levels using Western blots. These procedures are described in more detail below.
The ability of the drugs to inhibit galactitol formation from galactose was also studied in N/N 1003 lens epithelial cells. Two sets of lens cells were grown in media with […] 40 mM galactose. Various concentrations of inhibitors were added initially and the cells were grown for 48 hours. The cells were lysed and galactose and galactitol were extracted out and the concentrations were determined using gas chromatography and mass spectrometry by silylating the crude extract with excess of trimethylsilyl chloride, trimethylsilyl imidazole and pyridine at 70° C. for 1 h.
40 mM galactose media was supplemented with 10 uM inhibitor and fed to lens epithelial cells for 48 hours.

[2] = target: T2, Human aldose reductase (AR) (Homo sapiens, UniProt P15121); experiment: human AR inhibition assay (enzyme assay, NADPH absorption at 340 nm); format: biochemical; conditions: Table 4
T2 construct: made in house; host or cells: E. coli
Protocol: Human aldose reductase (AR) was obtained from overexpression of the human AR gene in an E coli system and was purified by column chromatography using a talon metal affinity column and eluted with a gradient mixture of Tris, NaCl buffer and imidazole solution. The human AR inhibition assay was conducted as follows. In a sample cuvette, 25 mM of D-xylose (75 mg/mL) and 0.15 mM of reduced nicotinamide adenine dinucleotide phosphate (NADPH) (4 mg/mL), and various amount of the inhibitor [in PBS (phosphate buffer saline) solution; the concentration of the inhibitor was determined using UV spectroscopy based on εmax at λmax of the drug] in 700 uL of PBS (a solution made of 1.44 g of Na2HPO4, 0.24 g KH2PO4, 0.2 g KCl, and 8 g NaCl in 1 L of distilled water) buffer (pH=6.1) solution and 200 uL of the AR enzyme (a final volume of 1 mL was obtained). The intensity of absorption of NADPH (λmax=340 nm) was measured. When xylose is reduced to xylitol, NADPH is converted into NADP and the absorption at 340 nm decreases. When AR is inhibited by the drug, the absorption at 340 nm of NADPH remains unchanged. Each assay was repeated three times and an average IC50 value was obtained.

PKC-γ = experiment: galactose-fed rats: PKC-γ levels in lens and sciatic nerve (Western blot); format: in vivo, Sprague Dawley Rats; conditions: 100 mg/Kg body weight per day
Protocol: In order to test for in vivo effects of ARI's, rats were fed a 40% galactose diet for 9 days and the accumulation of galactitol was measured in lens tissue. This tissue has high aldose reductase activity and the eye has a separate vasculature. Thus, if the ARI works in the lens this is a good indication that the drug works and can penetrate to most tissues.
The specific experimental details follow. […] The rats were given food supplemented with inhibitor in the morning and then given food and water ad libitum the rest of the day. They were kept on a 12-hour on and 12-hour off light cycle. After 9 days, the rats were sacrificed with an overdose of CO2 and then eyes were taken and immediately frozen on dry ice for later polyol and PKC analyses. Experiments on all rats conformed to the ARVO resolution on the Use of Animals in Research.
The lenses were removed from the enucleated eyes and weighed. They were put in 200 μL lysis buffer (50 mM Tris, 100 mM NaCl, M-Per Pierre Zwitterionic detergent, 5 mM NaF, 1 mM Na3VO4, 40 mM β-glycerophosphate, 6 μg/mL chymotrypsin, 10 μM3,4-dichlorocoumarin, 10 μM E-64, 1 μg/mL leupeptin, 1 μg/mL pepstatin A, 1 μg/mL aprotinin, 1 mM PMSF, and 5 mM EDTA (Sigma). The lenses were then ground using a tissue grinder until they were a uniformly white solution. They were then sonicated to make certain all the cells were disrupted. The mixture was then centrifuged for 20 minutes at 0° C. at […]. The supernatant was then analyzed for protein content using […] (Pierce). Equal amounts of protein were loaded and separated on a 10% SDS polyacrylamide gel. The proteins were transferred to nitrocellulose (Midwest Scientific; pore size 0.45 μm). The western was blocked with a 3% milk solution, and then mouse anti-PKC γ (1:5000) or PKC α (1:1000) antisera (Transgenic Laboratories) were applied in a 3% milk solution overnight. […]
The effects of streptozotocin induced diabetes on PKC-γ levels in rat lens have been measured. […]

IC50 (ACAT): 310 µM | IC50 (CETP): > 100 µM
Structure (SMILES): CC(CO)[C@H]1CCC2=Cc3c(cc(CC(=O)OCc4ccccc4)oc3=O)O[C@H]2C1 (mixture of isomers) [Compound 102, Benzyl (5aS,7S)-{7-[(1R)- and (1S)-2-hydroxy-1-methylethyl]-1H,7H-5a,6,8,9-tetrahydro-1-oxopyrano[4,3-b][1]benzopyran-3-yl}acetate]

IC50 (ACAT): 150 µM | IC50 (CETP): 75 µM
Structure (SMILES): CC(CO)[C@H]1CC[C@@H]2[C@H](C1)Oc1cc(CC(=O)OCc3ccccc3)oc(=O)c1[C@H]2O (mixture of isomers) [Compound 103, Benzyl (5aS,7S,9aS,10S)-{10-hydroxy-7-[(1R) and (1S)-2-hydroxy-1-methylethyl]-1H,7H-5a,6,8,9-tetrahydro-1-oxopyrano[4,3-b][1]benzopyran-3-yl}acetate]

IC50 (ACAT): > 500 µM | IC50 (CETP): > 250 µM
Structure (SMILES): Cc1cc2c(c(=O)o1)C=C1CC[C@H](C(C)Cn3cnc(N)c4ncnc3-4)C[C@@H]1O2 (mixture of isomers) [Compound 106, (5aS,7S)-7-[(1R) and (1S)-2-(N-3-adenyl)-1-methylethyl]-3-methyl-1H,7H-5a,6,8,9-tetrahydro-1-oxopyrano[4,3-b][1]benzopyran]
protection of MC65 cells from death (in words) (MC65 cells): protected from death | EC50 (MC65 cells): 0.15 µM

Structure (SMILES): Cc1cc2c(c(=O)o1)C=C1CC[C@H](C(C)CNc3ncnc4[nH]cnc34)C[C@@H]1O2 (mixture of isomers) [Compound 107, (5aS,7S)-7-[(1R) and (1S)-2-(N10-Adenyl)-1-methylethyl]-3-methyl-1H,7H-5a,6,8,9-tetrahydro-1-oxopyrano[4,3-b][1]benzopyran]
protection of MC65 cells from death (in words) (MC65 cells): inactive | EC50 (MC65 cells): > 3 µM

Structure (SMILES): Nc1ncnc2nc[nH]c12 [Adenine, reference compound]
protection of MC65 cells from death (in words) (MC65 cells): no activity | EC50 (MC65 cells): > 10 µM

IC50 ([2]; read-out: IC50 values obtained from the enzyme assay (aldose reductase)): > 500 µM
Structure (SMILES): O=C(O)C(O)Cc1cc2c(c(=O)o1)C=C1CCCCC1O2 (centres unmarked) [Compound 3, 2-Hydroxy-3-{1H,7H-5a,6,8,9-tetrahydro-1-oxopyrano[4,3-b][1]benzopyran-3-yl}-propanoic acid]
inhibition at 10 µM ([1]; Epithelial cell): < 10%

water solubility (water solubility): water soluble
Structure (SMILES): O=C(O)CCc1cc2c(c(=O)o1)C=C1CCCCC1O2 (centres unmarked) [Compound 5a]

IC50 values obtained from the enzyme assay (aldose reductase) [2]: No significant inhibition detected
Structure (SMILES): C=C(C)[C@H]1CCC2=Cc3c(cc(CC(=O)O)oc3=O)O[C@H]2C1 [Compound 6, {(5aS,7S)-7-Isopropenyl-1H,7H-5a,6,8,9-tetrahydro-1-oxopyrano[4,3-b][1]-benzopyran-3-yl}acetic acid]

IC50 values obtained from the enzyme assay (aldose reductase) [2]: No significant inhibition detected
Structure (SMILES): CC(CO)[C@H]1CCC2=Cc3c(cc(CC(=O)O)oc3=O)O[C@H]2C1 (some centres unmarked) [Compound 7]

IC50 (ACAT): 157 µM | IC50 (CETP): > 100 µM
Structure (SMILES): C=C(C)[C@H]1CCC2=Cc3c(cc(CC(=O)OCc4ccccc4)oc3=O)O[C@H]2C1 [Compound 101, Benzyl (5aS,7S)-{7-isopropenyl-1H,7H-5a,6,8,9-tetrahydro-1-oxopyrano[4,3-b][1]benzopyran-3-yl}acetate]

IC50 (ACAT): 167 µM
Structure (SMILES): C=C(C)[C@H]1CCC2=Cc3c(cc(C)oc3=O)O[C@H]2C1 [Compound 108]
EC50 (MC65 cells): > 10 µM

IC50 ([1]; Epithelial cell): 8 µM | water solubility (water solubility): insoluble in water
Structure (SMILES): COc1ccc2c(C(=S)N(C)CC(=O)O)cccc2c1C(F)(F)F [Tolrestat, reference compound]
% galactitol ([1]; 0.5 uM Tolrestat): 100% | % galactitol ([1]; 1 uM Tolrestat): 90% | % galactitol ([1]; 7 uM Tolrestat): 53% | inhibition at 10 µM ([1]; Epithelial cell): 95 ± 4% | PKC-γ levels in lens epithelial cells (PKC-γ; 40% galactose feed 9 days, FIG. 2, FIG. 3A): remained near normal | PKC-γ levels in sciatic nerve cells (PKC-γ; high galactose feed, FIG. 3B): normalized
